Assay results published in US20230026789A1, “METHODS, SYSTEMS, AND TOOLS FOR LONGEVITY-RELATED APPLICATIONS” (SPRING DISCOVERY, INC., priority 2020, published 2023).
Where a name gives a salt, the structure may show the parent alone.

Assays:
[1] = system: rVSV-ΔG-mCherry-infected PBMCs
[2] = system: rVSV-ΔG-mCherry-infected PBMCs from older donors; format: cell-based, human
[3] = system: rVSV-infected PBMCs from older donors; format: cell-based, human
[4] = system: T cells in rVSV-ΔG-mCherry-infected PBMCs; format: cell-based, human
[5] = system: T cells in rVSV-ΔG-mCherry-infected PBMCs; format: cell-based, human; remark: listed apart in the source
[6] = system: T cells in rVSV-ΔG-mCherry-infected PBMCs; assay: On-age and off-age scores from T-cell image embeddings; format: cell-based, human; settings: T cells from older donors vs untreated controls
late stage COVID-19 = settings: cited from earlier work

| Molecule | less T cells relative to vehicle-only controls [1] [%] | more dead and infected monocytes relative to vehicle-only controls [1] [%] | percentage of T cells [1] | percentage of dead cells and infected monocytes [1] | IL-1β level vs old untreated control PBMCs [2] | MCP1 level vs old untreated control PBMCs [2] | TNFα level vs old untreated control PBMCs [2] | outcome of screen ranked by immune aging score and COVID-19 cytokine score [3] | percentage of reticular T-cell mitochondria [4] | T-cell age score / aging model readout vs old untreated controls [5] | off-age effects (change orthogonal to age distances) [6] | on-age score (distance from young controls) [6] | patients who lowered their oxygen intake (late stage COVID-19; 15 of 20 late stage COVID-19 patients) [%] | patients with lung lesion opacity absorbed on CT scans (late stage COVID-19; 19 patients) [%] | fever after treatment (late stage COVID-19; within a few days after treatment) |
| --- | --- | --- | --- | --- | --- | --- | --- | --- | --- | --- | --- | --- | --- | --- | --- |
| CC(C)[C@]12O[C@H]1[C@@H]1O[C@@]13[C@@]1(C)CCC4=C(COC4=O)[C@@H]1C[C@@H]1O[C@@]13C2=O [Triptonide] | 19 | 21 | decrease | significant increase | significant differences at one or more doses | significant, dose-dependent reduction | significant differences at one or more doses | identified as a therapy with potential for rejuvenating the aging immune system | dose-dependent decrease | from an older phenotype to a younger phenotype | significant | significantly shifted |  |  |  |
| Tocilizumab: IL-6 targeting therapy tested in late stage COVID-19 |  |  |  |  |  |  |  |  |  |  |  |  | 75.0 | 90.5 | returned to normal |
| COC(=O)/C=C/C(=O)OC [dimethyl fumarate, reference compound] |  |  |  |  |  |  |  |  |  |  |  | did not improve |  |  |  |
